Source: patent US8455544B2, “Synthetic triterpenoids and methods of use in the treatment of disease” (Reata Pharmaecuticals, Inc., priority 2008, dated 2013)

Tests used:
[1] = system: cisplatin-induced renal toxicity; test: Rat cisplatin-induced acute renal injury; format: in vivo
Method: FIGS. 2a-c—RTA 402 reduces cisplatin-induced renal toxicity. Rats were administered RTA 402 at 10 mg/kg or simply the vehicle (sesame oil) every day by oral gavage beginning on Day −1. On Day 0, the rats received an intravenous injection of cisplatin at 6 mg/kg. Blood samples were drawn on the indicated days and the levels of creatinine (FIG. 2a) and blood urea nitrogen (BUN) (FIG. 2b) were measured as markers of renal damage. A statistically significant difference was observed between the vehicle-treated and RTA 402-treated groups on Day 3 (creatinine) and Day 5 (creatinine and BUN). (FIG. 2c) Less damage to the proximal tubules is observed in RTA 402-treated animals compared to vehicle-treated animals.
In another model of acute renal injury, rats were injected intravenously with the antineoplastic agent cisplatin. In humans, nephrotoxicity is a dose-limiting side effect of treatment with cisplatin. Cisplatin-induced damage to the proximal tubules is thought to be mediated by increased inflammation, oxidative stress, and apoptosis (Yao et al., 2007). Rats treated with a single dose of cisplatin at 6 mg/kg developed renal insufficiency as measured by increased blood levels of creatinine and BUN.

[2] = Serum creatinine in toxicology studies, rats; format: in vivo, Sprague-Dawley rats; conditions: oral, once daily, one month (crystalline) or three months (amorphous form)
Method: (§1) FIGS. 3a-d—RTA 402 reduces serum creatinine levels in monkeys, dogs, and rats. (FIG. 3a) Cynomolgus monkeys were administered RTA 402 orally at the indicated doses once daily for 28 days. The percent reduction of serum creatinine on Day 28 in RTA 402-treated monkeys relative to vehicle-treated control monkeys is shown. (FIG. 3b) RTA 402 was administered orally to beagle dogs at the indicated doses daily for three months. Control animals received vehicle (sesame oil). The percent change in serum creatinine at the three-month time point relative to baseline is shown. (FIG. 3c) Sprague-Dawley rats were administered RTA 402 orally at the indicated doses once daily for a period of one month. The percent reduction of serum creatinine at study completion in RTA 402-treated rats relative to vehicle-treated control rats is shown. (FIG. 3d) Sprague-Dawley rats were administered the amorphous form of RTA 402 orally at the indicated doses once daily for a period of three months. The percent reduction of serum creatinine at study completion in RTA 402-treated rats relative to vehicle-treated control rats is shown. […] For example, a reading of −15 on this axis indicates a 15% reduction in serum creatinine.
(§2) Serum creatinine has been measured in several animal species treated with RTA 402 in the course of toxicology studies. […]

[3] = system: patients with pancreatic cancer; test: Study of RTA 402 in combination with gemcitabine in patients with pancreatic cancer: eGFR; format: in vivo, human; parameters: unit not given here
Method: FIG. 5—RTA 402 increases GFR in human patients with cancer. Estimated glomerular filtration rate (eGFR) was measured in RTA 402-treated patients enrolled in a multi-month clinical trial for the treatment of cancer. All patients (n=11) dosed through six months were included in the analysis. The dosing information for these patients is provided in Example 5, below.
Some of these patients were enrolled in the Phase I study, whereas others were enrolled in a study of RTA 402 (in combination with gemcitabine) in patients with pancreatic cancer.

[4] = Serum creatinine in toxicology study, dogs; format: in vivo, beagle dogs; conditions: oral, daily for three months
Method: as §1, §2

RAW264.7 macrophages = test: Cell viability, WST-1 reagent; format: cell-based; conditions: Mus musculus, RAW264.7 (20 ng/ml IFNγ)
[5] = 10 mg/kg oral gavage daily from one day prior to cisplatin 6 mg/kg i.v.

SMILES: COC(=O)[C@]12CCC(C)(C)C[C@H]1[C@H]1C(=O)C=C3[C@@]4(C)C=C(C#N)C(=O)C(C)(C)[C@@H]4CC[C@@]3(C)[C@]1(C)CC2 [RTA 402, methyl-2-cyano-3,12-dioxooleana-1,9-dien-28-oic acid]
- Extent of proximal tubule damage (histological evaluation) compared to vehicle ([1]; 10 mg/kg oral gavage daily): improvement
- Blood levels of BUN [1, 5]: significantly reduced
- Blood levels of creatinine [1, 5]: significantly reduced
- Serum creatinine levels relative to control animals [2]: Significant reductions
- eGFR ([3]; Pt 1001, dose 150 mg, cycle 1, BL 68.8): 78.9
- eGFR ([3]; Pt 1001, dose 150 mg, cycle 2, BL 68.8): 109.9
- eGFR ([3]; Pt 1001, dose 150 mg, cycle 3, BL 68.8): 135.7
- eGFR ([3]; Pt 1001, dose 150 mg, cycle 4, BL 68.8): 175.5
- eGFR ([3]; Pt 1001, dose 150 mg, cycle 5, BL 68.8): 175.5
- eGFR ([3]; Pt 1001, dose 150 mg, cycle 6, BL 68.8): 135.7
- eGFR ([3]; Pt 1104, dose 300/150 mg, cycle 1, BL 67.3): 95.7
- eGFR ([3]; Pt 1104, dose 300/150 mg, cycle 2, BL 67.3): 71.6
- eGFR ([3]; Pt 1104, dose 300/150 mg, cycle 3, BL 67.3): 141.2
- eGFR ([3]; Pt 1104, dose 300/150 mg, cycle 4, BL 67.3): 95.7
- eGFR ([3]; Pt 1104, dose 300/150 mg, cycle 5, BL 67.3): 114.4
- eGFR ([3]; Pt 1104, dose 300/150 mg, cycle 6, BL 67.3): 114.4
- eGFR ([3]; Pt 1105, dose 300 mg, cycle 1, BL 82.4): 106.6
- eGFR ([3]; Pt 1105, dose 300 mg, cycle 2, BL 82.4): 89.3
- eGFR ([3]; Pt 1105, dose 300 mg, cycle 3, BL 82.4): 106.6
- eGFR ([3]; Pt 1105, dose 300 mg, cycle 4, BL 82.4): 106.6
- eGFR ([3]; Pt 1105, dose 300 mg, cycle 5, BL 82.4): 131.6
- eGFR ([3]; Pt 1105, dose 300 mg, cycle 6, BL 82.4): 170.3
- eGFR ([3]; Pt 1106, dose 300 mg, cycle 1, BL 89.0): 106.3
- eGFR ([3]; Pt 1106, dose 300 mg, cycle 2, BL 89.0): 106.3
- eGFR ([3]; Pt 1106, dose 300 mg, cycle 3, BL 89.0): 106.3
- eGFR ([3]; Pt 1106, dose 300 mg, cycle 4, BL 89.0): 131.2
- eGFR ([3]; Pt 1106, dose 300 mg, cycle 5, BL 89.0): 131.2
- eGFR ([3]; Pt 1106, dose 300 mg, cycle 6, BL 89.0): 131.2
- Serum creatinine levels relative to baseline [4]: Significant reductions
- IC50 (RAW264.7 macrophages): 80 nM
